In patent publication US10717734B2, “Indole and azaindole haloallylamine derivative inhibitors of lysyl oxidases and uses thereof” (PHARMAXIS LTD., priority 2016, dated 2020):
Counter-ions that a name gives are not always drawn.

Tests used:
Assay type in all cases: biochemical
[1] = molecular target: Bovine LOX (Bos taurus (Bovine), UniProt P33072); assay: LOX inhibition, peroxidase-coupled Amplex Red amine oxidase assay; details: 30 min preincubation at 37° C., putrescine substrate
Excerpt: (§1) Method to Determine the Ability of Compounds of the Invention to Inhibit LOX and LOXL1-4 from Different Sources
Lysyl oxidase (LOX) is an extracellular copper dependent enzyme which oxidizes peptidyl lysine and hydroxylysine residues in collagen and lysine residues in elastin to produce peptidyl alpha-aminoadipic-delta-semialdehydes. […] There are five LOX family members; these are LOX, LOXL1, LOXL2, LOXL3 and LOXL4. LOX and LOXL family members can be acquired as recombinant active proteins from commercial sources, or extracted from animal tissues like bovine aorta, tendons, pig skin; or prepared from cell cultures. The inhibitory effects of the compounds of the present invention were tested against the given LOX-LOXL preparation using a high-throughput coupled colorimetric method (Holt A. and Palcic M., A peroxidase-coupled continuous absorbance plate-reader assay for flavin monoamine oxidases, copper-containing amine oxidases and related enzymes. Nat. Protoc. 2006; 1: 2498-2505). The assay was developed using either 384 or 96 well format. Briefly, in a standard 384 well plate assay 25 μL of a dilution of any of the isoenzymes and orthologues in 1.2 M urea, 50 mM sodium borate buffer (pH 8.2) were added into each well in the presence of 1 μM mofegiline and 0.5 mM pargyline (to inhibit SSAO and MAO-B and MAO-A, respectively). […] Twenty five μL of a reaction mixture containing twice the KM concentration of putrescine (Sigma Aldrich, e.g. 20 mM for LOX, or 10 mM for LOXL2 and LOXL3), 120 μM Amplex Red (Sigma Aldrich) and 1.5 U/mL horseradish peroxidase (Sigma Aldrich) prepared in 1.2 M urea, 50 mM sodium borate buffer (pH 8.2) were then added to the corresponding wells. The above volumes were doubled in the case of 96 wells plate. The fluorescence (RFU) was read every 2.5 min for 30 min at a range of temperatures from 37° to 45° C., excitation 565 nm and emission 590 (Optima; BMG labtech). The slope of the kinetics for each well was calculated using MARS data analysis software (BMG labtech) and this value was used to deduce the IC50 value (Dotmatics).

[2] = molecular target: Human LOXL2 (Homo sapiens (Human), UniProt Q9Y4K0); assay: LOXL2 inhibition, peroxidase-coupled Amplex Red amine oxidase assay; details: 30 min preincubation at 37° C., putrescine substrate
Sequence of Human LOXL2 (Q9Y4K0 26-774): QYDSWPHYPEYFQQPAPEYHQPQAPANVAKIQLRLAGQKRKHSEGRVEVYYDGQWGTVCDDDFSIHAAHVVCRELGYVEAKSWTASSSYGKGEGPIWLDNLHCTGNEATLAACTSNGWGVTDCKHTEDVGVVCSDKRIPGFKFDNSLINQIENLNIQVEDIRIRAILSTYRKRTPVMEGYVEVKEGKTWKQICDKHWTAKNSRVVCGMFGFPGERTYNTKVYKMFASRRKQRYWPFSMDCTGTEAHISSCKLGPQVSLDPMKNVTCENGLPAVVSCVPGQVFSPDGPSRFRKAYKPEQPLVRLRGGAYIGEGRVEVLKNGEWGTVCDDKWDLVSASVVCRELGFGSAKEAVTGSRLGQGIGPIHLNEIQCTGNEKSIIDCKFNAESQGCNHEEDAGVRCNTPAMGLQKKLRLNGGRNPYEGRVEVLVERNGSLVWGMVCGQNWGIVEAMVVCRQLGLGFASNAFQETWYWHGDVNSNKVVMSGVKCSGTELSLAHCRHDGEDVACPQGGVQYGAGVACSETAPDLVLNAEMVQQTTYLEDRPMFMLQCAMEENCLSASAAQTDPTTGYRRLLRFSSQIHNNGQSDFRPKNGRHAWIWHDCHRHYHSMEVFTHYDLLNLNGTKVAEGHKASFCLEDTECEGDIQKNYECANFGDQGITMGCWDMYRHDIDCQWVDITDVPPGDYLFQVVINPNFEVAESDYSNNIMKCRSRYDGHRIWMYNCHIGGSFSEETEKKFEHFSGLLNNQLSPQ
Excerpt: as §1
Lysyl oxidase (LOX) is an extracellular copper dependent enzyme which oxidizes peptidyl lysine and hydroxylysine residues in collagen and lysine residues in elastin to produce peptidyl alpha-aminoadipic-delta-semialdehydes. […] There are five LOX family members; these are LOX, LOXL1, LOXL2, LOXL3 and LOXL4. LOX and LOXL family members can be acquired as recombinant active proteins from commercial sources, or extracted from animal tissues like bovine aorta, tendons, pig skin; or prepared from cell cultures. The inhibitory effects of the compounds of the present invention were tested against the given LOX-LOXL preparation using a high-throughput coupled colorimetric method (Holt A. and Palcic M., A peroxidase-coupled continuous absorbance plate-reader assay for flavin monoamine oxidases, copper-containing amine oxidases and related enzymes. Nat. Protoc. 2006; 1: 2498-2505). The assay was developed using either 384 or 96 well format. Briefly, in a standard 384 well plate assay 25 μL of a dilution of any of the isoenzymes and orthologues in 1.2 M urea, 50 mM sodium borate buffer (pH 8.2) were added into each well in the presence of 1 μM mofegiline and 0.5 mM pargyline (to inhibit SSAO and MAO-B and MAO-A, respectively). Test compounds were dissolved in DMSO and tested in a Concentration Response Curve (CRC) with 11 data points, typically in the micromolar or nanomolar range after incubation with the enzyme for 30 min at 37° C. Twenty five μL of a reaction mixture containing twice the KM concentration of putrescine (Sigma Aldrich, e.g. 20 mM for LOX, or 10 mM for LOXL2 and LOXL3), 120 μM Amplex Red (Sigma Aldrich) and 1.5 U/mL horseradish peroxidase (Sigma Aldrich) prepared in 1.2 M urea, 50 mM sodium borate buffer (pH 8.2) were then added to the corresponding wells. The above volumes were doubled in the case of 96 wells plate. The fluorescence (RFU) was read every 2.5 min for 30 min at a range of temperatures from 37° to 45° C., excitation 565 nm and emission 590 (Optima; BMG labtech). The slope of the kinetics for each well was calculated using MARS data analysis software (BMG labtech) and this value was used to deduce the IC50 value (Dotmatics).

[3] = molecular target: Recombinant human MAO-B (Homo sapiens (Human), UniProt P27338); assay: Human recombinant MAO-B inhibition; details: benzylamine 100 μM
Sequence of Recombinant human MAO-B (P27338 whole entry): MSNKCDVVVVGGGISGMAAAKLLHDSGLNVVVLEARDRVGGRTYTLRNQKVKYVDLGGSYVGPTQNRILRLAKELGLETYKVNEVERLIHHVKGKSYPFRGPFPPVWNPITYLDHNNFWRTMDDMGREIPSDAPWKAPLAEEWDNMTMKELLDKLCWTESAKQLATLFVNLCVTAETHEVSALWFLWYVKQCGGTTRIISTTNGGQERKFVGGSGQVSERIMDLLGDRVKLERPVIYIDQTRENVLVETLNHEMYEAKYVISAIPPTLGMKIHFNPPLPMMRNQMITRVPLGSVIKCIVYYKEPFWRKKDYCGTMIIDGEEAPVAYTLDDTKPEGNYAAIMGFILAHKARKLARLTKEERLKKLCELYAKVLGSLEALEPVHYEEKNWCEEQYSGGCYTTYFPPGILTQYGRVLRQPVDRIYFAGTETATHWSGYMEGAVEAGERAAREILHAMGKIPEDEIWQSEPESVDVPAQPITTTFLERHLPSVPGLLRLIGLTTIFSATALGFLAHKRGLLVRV
Method: Method to Determine the Ability of Compounds of Formula I to Inhibit Human Recombinant MAO-B
The specificity of the compounds of this invention was tested by determining their ability to inhibit MAO-B activities in vitro. Recombinant human MAO-B (0.06 mg/mL; Sigma Aldrich) was used as source of MAO-B enzyme activities. The assay was performed in a similar way as for human SSAO/VAP-1 (Example 36) except, the substrate benzylamine was used at 100 μM.

[4] = molecular target: Human recombinant SSAO/VAP-1 (Homo sapiens (Human), UniProt Q16853); assay: Human recombinant SSAO/VAP-1 amine oxidase inhibition; details: 30 min preincubation at 37° C., 600 μM benzylamine
Sequence of Human recombinant SSAO/VAP-1 (Q16853 34-763): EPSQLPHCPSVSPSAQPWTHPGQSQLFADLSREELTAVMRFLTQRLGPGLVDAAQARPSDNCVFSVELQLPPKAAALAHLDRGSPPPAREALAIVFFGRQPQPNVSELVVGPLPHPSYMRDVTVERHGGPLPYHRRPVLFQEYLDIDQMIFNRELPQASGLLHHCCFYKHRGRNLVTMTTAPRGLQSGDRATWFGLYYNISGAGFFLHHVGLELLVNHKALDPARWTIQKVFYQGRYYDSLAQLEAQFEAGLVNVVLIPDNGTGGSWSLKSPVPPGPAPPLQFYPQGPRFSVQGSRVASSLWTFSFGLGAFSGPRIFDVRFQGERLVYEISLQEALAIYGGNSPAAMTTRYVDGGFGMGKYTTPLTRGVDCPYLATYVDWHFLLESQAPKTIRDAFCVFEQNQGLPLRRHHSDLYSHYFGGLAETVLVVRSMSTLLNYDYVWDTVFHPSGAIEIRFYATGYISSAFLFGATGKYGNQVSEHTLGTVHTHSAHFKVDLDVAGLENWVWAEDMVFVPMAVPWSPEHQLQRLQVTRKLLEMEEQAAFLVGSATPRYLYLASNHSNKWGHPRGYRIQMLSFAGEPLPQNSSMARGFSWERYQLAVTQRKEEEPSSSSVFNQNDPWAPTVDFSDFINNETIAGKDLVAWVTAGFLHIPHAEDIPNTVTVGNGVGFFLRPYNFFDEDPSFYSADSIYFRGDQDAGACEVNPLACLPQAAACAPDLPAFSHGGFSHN
Method: Method to Determine the Ability of Compounds of Formula I to Inhibit Human Recombinant SSAO/VAP-1
Human recombinant SSAO/VAP-1 amine oxidase activity was determined using the coupled colorimetric method as described for monoamine oxidase, copper-containing amine oxidases and related enzymes (Holt A. and Palcic M., A peroxidase-coupled continuous absorbance plate-reader assay for flavin monoamine oxidases, copper-containing amine oxidases and related enzymes. Nat Protoc 2006; 1: 2498-2505). Briefly, a cloned cDNA template corresponding to residues 34-763 of human SSAO/VAP-1, and incorporating a mouse Ig kappa (κ) signal sequence, N-terminal flag epitope tag and tobacco etch virus (TEV) cleavage site, was assembled in a mammalian expression vector (pLO-CMV) by Geneart AG. This vector containing human SSAO/VAP-1 residues was transfected into CHO-K1 glycosylation mutant cell line, Lec 8. A clone stably expressing human SSAO/VAP-1 was isolated and cultured in large scale. Active human SSAO/VAP-1 was purified and recovered using immunoaffinity chromatography. This was used as the source for SSAO/VAP-1 activity. A high-throughput colorimetric assay was developed using either 96 or 384 well format. Briefly, in a standard 96 well plate assay 50 μL of purified human SSAO/VAP-1 (0.25 μg/mL) in 0.1 M sodium phosphate buffer (pH 7.4) was added into each well. Test compounds were dissolved in DMSO and tested in a Concentration Response Curve (CRC) with 4-11 data points, typically in the micromolar or nanomolar range after incubation with human SSAO/VAP-1 for 30 min at 37° C. After 30 min incubation, 50 μL of the reaction mixture containing 600 μM benzylamine (Sigma Aldrich), 120 μM Amplex Red (Sigma Aldrich) and 1.5 U/mL horseradish peroxidase (Sigma Aldrich) prepared in 0.1 M sodium phosphate buffer (pH 7.4) were added to the corresponding well. The fluorescence unit (RFU) was read every 2.5 min for 30 min at 37° C. excitation 565 nm and emission 590 (Optima; BMG labtech). The slope of the kinetics for each well was calculated using MARS data analysis software (BMG labtech) and this value was used to deduce the IC50 value (Dotmatics).

Sequence of Bovine LOX (P33072 170-418): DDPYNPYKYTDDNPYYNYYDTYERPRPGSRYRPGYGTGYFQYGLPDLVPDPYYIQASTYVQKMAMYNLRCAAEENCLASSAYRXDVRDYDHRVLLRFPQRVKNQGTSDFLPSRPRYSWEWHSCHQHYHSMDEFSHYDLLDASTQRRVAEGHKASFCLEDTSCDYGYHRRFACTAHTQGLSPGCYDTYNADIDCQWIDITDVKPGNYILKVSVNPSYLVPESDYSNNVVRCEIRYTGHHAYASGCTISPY

SMILES | IC50 [1] [nM] | IC50 [2] [nM] | IC50 [3] [nM] | IC50 [4] [nM]
Cc1ccc2c(n1)c(Cc1ccc(S(C)(=O)=O)cc1)c(C)n2C/C(F)=C/CN [Compound 12, (Z)-4-(2,5-dimethyl-3-(4-(methylsulfonyl)benzyl)-1H-pyrrolo[3,2-b]pyridin-1-yl)-3-fluorobut-2-en-1-amine dihydrochloride] | > 300 | < 300 | > 3000 | > 3000
Cc1ccc2c(n1)c(Cc1ccc(S(C)(=O)=O)nc1)c(C)n2C/C(F)=C/CN [Compound 13, (Z)-4-(2,5-dimethyl-3-((6-(methylsulfonyl)pyridin-3-yl)methyl)-1H-pyrrolo[3,2-b]pyridin-1-yl)-3-fluorobut-2-en-1-amine trihydrochloride] | > 300 | < 300 | > 3000 | > 3000
Cc1ccc2c(n1)c(Cc1ccc(S(C)(=O)=O)cn1)c(C)n2C/C(F)=C/CN [Compound 14, (Z)-4-(2,5-dimethyl-3-((5-(methylsulfonyl)pyridin-2-yl)methyl)-1H-pyrrolo[3,2-b]pyridin-1-yl)-3-fluorobut-2-en-1-amine trihydrochloride] | > 300 | < 300 | > 3000 | > 3000
Cc1ccc2c(n1)c(Cc1ccc(S(=O)(=O)N(C)C)cn1)c(C)n2C/C(F)=C/CN [Compound 15, (Z)-6-((1-(4-amino-2-fluorobut-2-en-1-yl)-2,5-dimethyl-1H-pyrrolo[3,2-b]pyridin-3-yl)methyl)-N,N-dimethylpyridine-3-sulfonamide trihydrochloride] | > 300 | < 300 | > 3000 | > 3000
Cc1ccc2c(n1)c(Cc1ccc(S(=O)(=O)N(C)C)nc1)c(C)n2C/C(F)=C/CN [Compound 16, (Z)-5-((1-(4-amino-2-fluorobut-2-en-1-yl)-2,5-dimethyl-1H-pyrrolo[3,2-b]pyridin-3-yl)methyl)-N,N-dimethylpyridine-2-sulfonamide trihydrochloride] | > 300 | < 300 | > 3000 | > 3000
Cc1ccc2c(n1)c(Cc1cccc(S(C)(=O)=O)c1)c(C)n2C/C(F)=C/CN [Compound 17, (Z)-4-(2,5-dimethyl-3-(3-(methylsulfonyl)benzyl)-1H-pyrrolo[3,2-b]pyridin-1-yl)-3-fluorobut-2-en-1-amine dihydrochloride] | > 300 | < 300 | > 3000 | > 3000
Cc1c(Cc2cccc(S(=O)(=O)N(C)C)c2)c2ncccc2n1C/C(F)=C/CN [Compound 18, dihydrochloride] | > 300 | < 300 | > 3000 | > 3000
Cc1cc2c(nc1O)c(Cc1ccc(S(=O)(=O)N(C)C)cc1)c(C)n2C/C(F)=C/CN [Compound 19, (Z)-4-((1-(4-amino-2-fluorobut-2-en-1-yl)-5-hydroxy-2,6-dimethyl-1H-pyrrolo[3,2-b]pyridin-3-yl)methyl)-N,N-dimethylbenzenesulfonamide dihydrochloride] | > 300 | < 300 | > 3000 | > 3000
Cc1c(Cc2ccc(S(C)(=O)=O)cc2Cl)c2ncccc2n1C/C(F)=C/CN [Compound 20, (Z)-4-(3-(2-chloro-4-(methylsulfonyl)benzyl)-2-methyl-1H-pyrrolo[3,2-b]pyridin-1-yl)-3-fluorobut-2-en-1-amine dihydrochloride] | > 300 | < 300 | > 3000 | > 3000
Cc1c(Oc2ccc(S(=O)(=O)N(C)C)cc2)c2ccccc2n1C/C(F)=C/CN [Compound 21, (Z)-4-((1-(4-amino-2-fluorobut-2-en-1-yl)-2-methyl-1H-indol-3-yl)oxy)-N,N-dimethylbenzene-sulfonamide hydrochloride] | > 300 | < 300 | > 3000 | > 3000
